Article PMC9814657, “Generative and reinforcement learning approaches for the automated de novo design of bioactive compounds” (Communications Chemistry, 2022)

molecular target: T1, epidermal growth factor receptor (EGFR) (Homo sapiens, UniProt P00533); assay: […] radiometric HotSpot kinase assay, 10-dose IC50, […] ATP (Reaction Biology); assay type: biochemical; conditions: not given
T1 sequence (P00533 25-1210): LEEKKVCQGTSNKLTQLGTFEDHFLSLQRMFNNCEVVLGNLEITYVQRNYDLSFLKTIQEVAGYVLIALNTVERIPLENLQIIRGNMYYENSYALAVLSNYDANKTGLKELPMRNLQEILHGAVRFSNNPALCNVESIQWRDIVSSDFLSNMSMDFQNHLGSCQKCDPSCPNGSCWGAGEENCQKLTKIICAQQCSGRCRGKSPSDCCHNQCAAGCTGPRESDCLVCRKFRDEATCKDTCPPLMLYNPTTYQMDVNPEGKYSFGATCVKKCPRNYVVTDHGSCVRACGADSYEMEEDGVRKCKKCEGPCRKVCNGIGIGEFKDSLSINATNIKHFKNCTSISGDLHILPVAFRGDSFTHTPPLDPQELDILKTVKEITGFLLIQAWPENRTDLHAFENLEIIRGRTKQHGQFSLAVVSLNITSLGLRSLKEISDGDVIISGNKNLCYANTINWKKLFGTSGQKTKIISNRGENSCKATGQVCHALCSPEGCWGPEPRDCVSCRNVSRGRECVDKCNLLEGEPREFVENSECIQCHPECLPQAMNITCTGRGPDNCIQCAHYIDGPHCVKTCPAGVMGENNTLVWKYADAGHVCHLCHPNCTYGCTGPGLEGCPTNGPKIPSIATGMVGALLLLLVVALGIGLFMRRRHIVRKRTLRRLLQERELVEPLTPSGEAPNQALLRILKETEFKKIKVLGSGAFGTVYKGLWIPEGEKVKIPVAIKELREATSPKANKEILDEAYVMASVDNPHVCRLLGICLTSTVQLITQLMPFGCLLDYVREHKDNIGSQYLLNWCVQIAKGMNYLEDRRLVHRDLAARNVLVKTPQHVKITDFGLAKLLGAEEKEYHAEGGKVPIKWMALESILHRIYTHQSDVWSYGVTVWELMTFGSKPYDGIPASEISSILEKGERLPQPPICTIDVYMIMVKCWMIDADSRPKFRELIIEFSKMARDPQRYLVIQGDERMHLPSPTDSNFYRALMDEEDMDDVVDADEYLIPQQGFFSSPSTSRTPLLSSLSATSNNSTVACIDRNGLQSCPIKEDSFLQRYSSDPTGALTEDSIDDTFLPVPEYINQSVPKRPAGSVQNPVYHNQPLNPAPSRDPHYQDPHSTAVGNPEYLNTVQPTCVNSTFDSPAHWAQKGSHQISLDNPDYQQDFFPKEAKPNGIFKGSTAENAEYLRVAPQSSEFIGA

pIC50	IC50	Compound
7.5 pIC50		Fc1ccc(Nc2ncnc3ccc(Br)cc23)cc1 [compound 1, Z1192045732]
7.4 pIC50		Nc1c(Cl)cc(Nc2ncnc3ccc(F)cc23)cc1Cl [compound 2, Z1576525970]
	1400 nM	Nc1c(Cl)cc(Nc2ncnc3c(F)cccc23)cc1Cl [compound 4, Z1823625743]

molecular target: T1, epidermal growth factor receptor (EGFR); assay: biochemical; parameters: 33P radiometric HotSpot filter-binding EGFR kinase assay, 10 uM ATP, Reaction Biology; conditions: 10 uM ATP
Experimental: (§1) Compounds that emerged as computational hits were purchased from Enamine (https://www.enaminestore.com/) and resuspended in 100% DMSO at 10 mM concentration. In vitro experiments were performed at Reaction Biology (https://www.reactionbiology.com/) using a radioactive assay based on the transfer of ^33P-labeled phosphate from ATP to the kinase substrate. The HotSpot^SM assay utilizes a miniaturized filter binding, where reaction mixtures are spotted onto filter papers. Then reaction mixture binds the radioisotope-labeled catalytic product. Unreacted phosphate is removed via washing of the filter papers. All reactions were carried out at 10 μM ATP concentrations. Seventeen computational hit molecules were matched with Enamine REAL. All of the predicted active compounds were derivatives of 4-anilinoquinazoline, a chemotype that was well represented in Enamine REAL (Table S1). The predicted active compounds contained a few small substituents on the quinazoline ring (positions 5–8: F, Cl, Br, OCH3) but a wide range of substituents on the 4-anilino group. […] The twenty three 4-anilinoquinazoline analogs were dissolved in DMSO and sent to Reaction Biology (https://www.reactionbiology.com/) for EGFR enzymatic assay screening. Two compounds in the predicted active series were insoluble in DMSO; therefore, biological tests were not performed. The 4-anilinoquinazoline analogs were initially tested in single-dose duplicate mode at a concentration of 1 μM and percent inhibition relative to DMSO control was determined (Table S1).

Compound	inhibition at 1 µM
Nc1c(Cl)cc(Nc2ncnc3c(F)cccc23)cc1Cl [ZINC000302791534]	47%
CN(C)C1CCN(c2ccc(Nc3ncnc4ccc(Br)cc34)cc2)CC1 [ZINC000301979927]	8%
Nc1c(Cl)cc(Nc2ncnc3ccc(F)cc23)cc1Cl [ZINC000301931984]	89%
CNC(=O)CCOc1ccc(Nc2ncnc3cc(Cl)ccc23)cc1 [ZINC000301175853]	12%
Fc1ccc2ncnc(Nc3ccc(N4CCCC4)cc3)c2c1 [ZINC000041479925]	8%
OC1CCN(c2ccc(Nc3ncnc4ccc(Br)cc34)cc2)CC1 [ZINC000112964683]	10%
COCCOc1ccc(Nc2ncnc3cc(F)c(OC)cc23)cc1F [ZINC000302555896]	12%
CN(C)C1CCN(c2ccc(Nc3ncnc4ccc(F)cc34)cc2)CC1 [ZINC000089266948]	14%
Fc1ccc(Nc2ncnc3ccc(Br)cc23)cc1 [ZINC000000099087]	96%
CN(C)CCc1ccc(Nc2ncnc3ccc(F)cc23)cc1 [ZINC000301950472]	10%
Fc1ccc(Nc2ncnc3ccc(F)cc23)cc1 [ZINC000092611293]	12%
CN(C)C1CCN(c2ccc(Nc3ncnc4c(F)cccc34)cc2)CC1 [ZINC000302845052]	12%

Continued, values first:

inhibition at 1 µM	Compound
8%	COCCOc1ccc(Nc2ncnc3cccc(F)c23)cc1F [ZINC000480418233]
14%	CN(C)CC1CCN(c2ccc(Nc3ncnc4ccc(Br)cc34)cc2)CC1 [ZINC000737413605]
83%	Cc1ccc(Nc2ncnc3cccc(F)c23)cc1F [ZINC000480349471]
0%	OCCCOc1ccc(Nc2ncnc3cc(Cl)ccc23)cc1 [ZINC000572311742]
16%	COCCOc1ccc(Nc2ncnc3c(F)cccc23)cc1Cl [ZINC000302873009]
4%	OC1CCCCC1Oc1ccc(Nc2ncnc3ccc(F)cc23)cc1 (centres unmarked) [ZINC000440544230]
8%	CN(C)CCc1ccc(Nc2ncnc3ccc(Cl)cc23)cc1 [ZINC000594704454]

molecular target: T1, epidermal growth factor receptor (EGFR); assay: biochemical; parameters: 33P radiometric HotSpot filter-binding EGFR kinase assay, 10 uM ATP, Reaction Biology; conditions: 10 uM ATP; read-out: EGFR pIC50 (converted)
Experimental: as §1, with “REAL.” for “REAL. All of the predicted active compounds were derivatives of 4-anilinoquinazoline, a chemotype that was well represented in Enamine REAL (Table S1). The predicted active compounds contained a few small substituents on the quinazoline ring (positions 5–8: F, Cl, Br, OCH3) but a wide range of substituents on the 4-anilino group.”, “Two compounds in the predicted active series were insoluble in DMSO; therefore, biological tests were not performed.” left out

IC50	Compound
1260 nM	Nc1c(Cl)cc(Nc2ncnc3c(F)cccc23)cc1Cl [ZINC000302791534]
39.8 nM	Nc1c(Cl)cc(Nc2ncnc3ccc(F)cc23)cc1Cl [ZINC000301931984]
200 nM	Cc1ccc(Nc2ncnc3cccc(F)c23)cc1F [ZINC000480349471]
31.6 nM	Fc1ccc(Nc2ncnc3ccc(Br)cc23)cc1 [ZINC000000099087]
